Measured values as given in patent US5017689A, “Dynorphin analogs specific for kappa opioid receptors” (Arizona Technology Development Corporation, priority 1989, dated 1991).
Like-named read-outs stand apart in the source and are kept apart here. Bridge positions count the residues as written; N and C are the ends. Peptide text beside a SMILES is read from it.

Assays:
κ opioid receptors = biological target: T1, κ opioid receptors (Cavia porcellus, UniProt P41144); experiment: Radioligand binding, inhibition of [3H]U-69593 binding to guinea pig brain membrane
T1 construct: from tissue; host or cells: whole guinea pig brain membranes
Procedure: (§2) Samples were incubated for 1.0 h at 25° C. before filtration through glass fiber filter strips (GF/B, Whatman) pretreated with 0.1% polyethylenimine. Nonspecific binding (=20% of total binding) was defined as binding measured in the presence of 1.0 μM Dyn A1-13.

δ opioid receptors = biological target: T2, δ opioid receptors (Rattus norvegicus, UniProt P33533); experiment: Radioligand binding, [3H]DPDPE, brain membranes; settings: rat brain homogenate, 1.0 nM radioligand
T2 construct: membranes prepared from whole rat brain (less cerebellum); from tissue; host or cells: whole rat brain (less cerebellum) membranes
Procedure: as §2

μ opioid receptors = μ opioid receptors (Rattus norvegicus, UniProt P33535); experiment: biochemical
[1] = test system: guinea pig ileum (GPI) longitudinal muscle/myenteric plexus preparation; experiment: Guinea pig ileum (GPI) longitudinal muscle/myenteric plexus bioassay; assay type: cell-based
Procedure: The known guinea pig ileum (GPI) longitudinal muscle/myenteric plexus preparation was used for in vitro bioassays (Kosterlitz, H.W., Lydon, R.J., and Watt, A.J., (1970), Br. J. Pharmacol., 39, 398-413). The tissues were suspended under a final tension of 1 g in organ baths, bathed with Krebs buffer (NaCl 118 mM, KCl 4.7 mM, CaCl2 2.5 mM, KH2 PO4 1.19 mM, MgSO4 1.18 mM, NaHCO3 25 mM, and glucose 11.48 mM), maintained at 37° C. and aerated with 95% O2 /5% CO2. Electrical stimuli were 0.4 msec pulses of supramaximal voltage, at a rate 6/min. Isometric contractions were measured via strain gauge force transducers on chart recorders. The mouse vas deferens (MVD) preparation was also performed as described by Hughes et al. (Hughes, J., Kosterlitz, H.W., and Leslie, F.M., (1975), Br. J. Pharmacol., 53, 371-381). The Krebs buffer was made as above, but without magnesium and the tissues were suspended under a final tension of 500 mg. Pulse duration was 2 msec. Dose-response testing in all preparations was carried out in a cumulative fashion. The compounds were tested for intrinsic agonist activity in the two in vitro bioassays. […] Ke values were calculated according to the formula: […]
(§1) where [Ant] is the concentration of the antagonist, and DR is the dose ratio (i.e., IC50 after antagonism divided by the IC50 before antagonist activity was measured).

[2] = test system: mouse vas deferens (MVD) preparation; experiment: Mouse vas deferens (MVD) bioassay; assay type: cell-based
Procedure: The known guinea pig ileum (GPI) longitudinal muscle/myenteric plexus preparation was used for in vitro bioassays (Kosterlitz, H.W., Lydon, R.J., and Watt, A.J., (1970), Br. J. Pharmacol., 39, 398-413). The tissues were suspended under a final tension of 1 g in organ baths, bathed with Krebs buffer (NaCl 118 mM, KCl 4.7 mM, CaCl2 2.5 mM, KH2 PO4 1.19 mM, MgSO4 1.18 mM, NaHCO3 25 mM, and glucose 11.48 mM), maintained at 37° C. and aerated with 95% O2 /5% CO2. Electrical stimuli were 0.4 msec pulses of supramaximal voltage, at a rate 6/min. Isometric contractions were measured via strain gauge force transducers on chart recorders. The mouse vas deferens (MVD) preparation was also performed as described by Hughes et al. (Hughes, J., Kosterlitz, H.W., and Leslie, F.M., (1975), Br. J. Pharmacol., 53, 371-381). The Krebs buffer was made as above, but without magnesium and the tissues were suspended under a final tension of 500 mg. Pulse duration was 2 msec. Dose-response testing in all preparations was carried out in a cumulative fashion. The compounds were tested for intrinsic agonist activity in the two in vitro bioassays. Thus, concentrations showing intrinsic activity for each analog were tested in the presence of naloxone (1000 nM) to define opioid activity. To further define the opioid selectivity of the agonist effect, the δ selective antagonist ICI 174,864 (Cotton, R., Giles, M.G., Miller, L., Shaw, J.S., and Timms, D. (1984), Eur. J. Pharmacol., 97, 331-332) was utilized in the MVD, and the μ selective antagonists CTAP (Pelton, J.T., Kazmierski, W., Gulya, K., Yamamura, H.I., and Hruby, V.J. (1986), J. Med. Chem., 29, 2370-2375) or CTP (Pelton, J.T., Gulya, K., Hruby, V.J., Duckles, S., and Yamamura, H.I. (1985) Proc. Natl. Acad. Sci. U.S.A., 82, 236-239) were employed in the GPI, all at 1000 nM. Ke values were calculated according to the formula: […]
as §1

kappa opioid receptor = settings: cited from earlier work
[3] = administered i.c.v.; cited from earlier work
[4] = administered i.c.v.; cited from earlier work; remark: listed apart in the source
[5] = selectivity, ratio of IC50 values

T2 sequence (P33533 whole entry): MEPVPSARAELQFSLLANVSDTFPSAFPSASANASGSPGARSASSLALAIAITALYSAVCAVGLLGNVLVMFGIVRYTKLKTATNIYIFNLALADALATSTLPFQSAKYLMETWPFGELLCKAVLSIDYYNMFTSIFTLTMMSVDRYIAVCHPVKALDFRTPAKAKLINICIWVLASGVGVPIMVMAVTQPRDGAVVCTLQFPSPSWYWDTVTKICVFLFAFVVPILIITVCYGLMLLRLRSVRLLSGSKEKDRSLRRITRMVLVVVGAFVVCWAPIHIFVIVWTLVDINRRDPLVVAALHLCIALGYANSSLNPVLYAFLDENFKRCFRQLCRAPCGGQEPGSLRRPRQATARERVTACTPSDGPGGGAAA
T1 sequence (P41144 whole entry): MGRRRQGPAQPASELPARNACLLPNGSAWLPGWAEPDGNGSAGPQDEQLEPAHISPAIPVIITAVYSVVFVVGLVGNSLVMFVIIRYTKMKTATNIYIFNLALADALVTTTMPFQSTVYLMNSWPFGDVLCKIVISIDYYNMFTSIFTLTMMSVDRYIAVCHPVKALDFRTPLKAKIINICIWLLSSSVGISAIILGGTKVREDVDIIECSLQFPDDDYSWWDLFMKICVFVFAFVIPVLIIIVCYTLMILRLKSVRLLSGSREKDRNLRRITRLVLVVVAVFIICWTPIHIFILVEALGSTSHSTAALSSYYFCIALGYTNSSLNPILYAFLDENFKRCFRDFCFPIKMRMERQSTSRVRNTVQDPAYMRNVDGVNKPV
μ opioid receptors, sequence (P33535 whole entry): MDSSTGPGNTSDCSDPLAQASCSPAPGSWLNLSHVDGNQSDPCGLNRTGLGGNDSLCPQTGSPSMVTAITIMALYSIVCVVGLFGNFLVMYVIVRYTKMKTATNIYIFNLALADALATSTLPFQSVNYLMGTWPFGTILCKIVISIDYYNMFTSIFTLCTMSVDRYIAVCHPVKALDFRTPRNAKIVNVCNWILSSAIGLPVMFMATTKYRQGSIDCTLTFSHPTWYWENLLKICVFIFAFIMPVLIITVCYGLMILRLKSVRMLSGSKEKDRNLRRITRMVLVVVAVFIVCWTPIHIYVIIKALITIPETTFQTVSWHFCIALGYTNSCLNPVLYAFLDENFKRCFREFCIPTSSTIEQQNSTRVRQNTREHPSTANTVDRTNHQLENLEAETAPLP

## CC[C@H](C)[C@@H]1NC(=O)[C@H](CCCN=C(N)N)NC(=O)[C@H](CCCN=C(N)N)NC(=O)[C@@H](NC(=O)[C@H](Cc2ccccc2)NC(=O)CNC(=O)CNC(=O)[C@@H](N)Cc2ccc(O)cc2)CSSC[C@@H](C(N)=O)NC(=O)[C@@H]2CCCN2C(=O)[C@H](CCCN=C(N)N)NC1=O [Compound 1] (H-YGGFCRRIRPC-NH2; disulfide 5-11)
κ opioid receptors
  IC50: 0.39 ± 0.06 nM
δ opioid receptors
  IC50: 18.6 ± 7.5 nM
μ opioid receptors
  IC50: 2.3 ± 0.72 nM

## C[C@H]1NC(=O)[C@H](CCCNC(=N)N)NC(=O)[C@H](CCCNC(=N)N)NC(=O)[C@@H](NC(=O)[C@H](Cc2ccccc2)NC(=O)CNC(=O)CNC(=O)[C@@H](N)Cc2ccc(O)cc2)CSSC[C@@H](C(N)=O)NC(=O)[C@@H]2CCCN2C(=O)[C@H](CCCNC(=N)N)NC1=O [Compound 2]
κ opioid receptors
  IC50: 0.28 ± 0.036 nM
δ opioid receptors
  IC50: 1.63 ± 0.53 nM
μ opioid receptors
  IC50: 0.27 ± 0.14 nM

## CC(C)C[C@@H]1NC(=O)[C@H](CCCCN)NC(=O)[C@@H]2CCCN2C(=O)[C@H](CCCN=C(N)N)NC(=O)[C@@H](NC(=O)[C@H](CCCN=C(N)N)NC(=O)[C@H](CCCN=C(N)N)NC(=O)[C@H](CC(C)C)NC(=O)[C@H](Cc2ccccc2)NC(=O)CNC(=O)CNC(=O)[C@@H](N)Cc2ccc(O)cc2)CSSC[C@@H](C(N)=O)NC1=O [Compound 3]
δ opioid receptors
  IC50: 3.97 ± 0.96 nM
μ opioid receptors
  IC50: 0.98 ± 0.12 nM

## CC(C)C[C@@H]1NC(=O)[C@H](CCCCN)NC(=O)[C@@H]2CCCN2C(=O)[C@H](CCCNC(=N)N)NC(=O)[C@H](NC(=O)[C@H](CCCNC(=N)N)NC(=O)[C@H](CCCNC(=N)N)NC(=O)[C@H](CC(C)C)NC(=O)[C@H](Cc2ccccc2)NC(=O)CNC(=O)CNC(=O)[C@@H](N)Cc2ccc(O)cc2)CSSC[C@@H](C(N)=O)NC1=O [Compound 4]
δ opioid receptors
  IC50: 104 ± 1.86 nM
μ opioid receptors
  IC50: 10.3 ± 3.9 nM

## CC(C)C[C@H](NC(=O)[C@H](Cc1ccccc1)NC(=O)CNC(=O)CNC(=O)[C@@H](N)Cc1ccc(O)cc1)C(=O)N[C@@H](CCCNC(=N)N)C(=O)N[C@@H](CCCNC(=N)N)C(=O)N[C@@H]1CSSC[C@H](C(N)=O)NC(=O)[C@H](CC(C)C)NC(=O)[C@H](CCCCN)NC(=O)[C@@H]2CCCN2C(=O)[C@H](CCCNC(=N)N)NC1=O [Compound 5]
κ opioid receptors; [5]
  δ/κ: 130
  μ/κ: 3
κ opioid receptors; κ, guinea pig brain homogenate, 1.0 nM radioligand, read-out: IC50 (nM) [3H]-U-69,593
  IC50: 0.11 ± 0.009 nM
[1]
  IC50: 1.75 nM
[1]; naloxone 1000 nM
  Ke (nM) for: NLX: 233 nM
[2]
  IC50: 19.5 nM
[2]; naloxone 1000 nM
  Ke (nM) for: NLX: 18.2 nM
[2]; δ antagonist ICI 174,864 1000 nM
  Ke (nM) for: ICI: 1000 nM
[2]; μ antagonist CTAP 1000 nM
  Ke (nM) for: CTAP: 1430 nM

## CC[C@H](C)[C@H](NC(=O)[C@H](CCCNC(=N)N)NC(=O)[C@H](CCCNC(=N)N)NC(=O)[C@H](CC(C)C)NC(=O)[C@H](Cc1ccccc1)NC(=O)CNC(=O)CNC(=O)[C@@H](N)Cc1ccccc1)C(=O)N[C@@H](CCCNC(=N)N)C(=O)N1CCC[C@@H]1C(=O)N[C@@H](CCCCN)C(N)=O [Compound 6, [Phe^1, D-Pro^10]Dyn A1-11NH2]
κ opioid receptors
  IC50: 2.4 ± 0.56 nM
δ opioid receptors
  IC50: 390 ± 52 nM
μ opioid receptors
  IC50: 120 ± 22 nM

## CC(C)C[C@H](NC(=O)[C@H](Cc1ccccc1)NC(=O)CNC(=O)CNC(=O)[C@@H](N)Cc1ccc(Br)cc1)C(=O)N[C@@H](CCCNC(=N)N)C(=O)N[C@@H](CCCNC(=N)N)C(=O)N[C@H](C)C(=O)N[C@@H](CCCNC(=N)N)C(=O)N1CCC[C@H]1C(=O)N[C@@H](CCCCN)C(N)=O [Compound 7, [p-BrPhe^1, D-Ala^8]Dyn A1-11NH2]
κ opioid receptors
  IC50: 1.7 ± 0.14 nM
δ opioid receptors
  IC50: 1060 ± 40 nM
μ opioid receptors
  IC50: 47 ± 5.1 nM

## CC[C@H](C)[C@H](NC(=O)[C@H](CCCN=C(N)N)NC(=O)[C@H](CCCN=C(N)N)NC(=O)[C@H](CC(C)C)NC(=O)[C@H](Cc1ccccc1)NC(=O)CNC(=O)CNC(=O)[C@@H](N)Cc1ccc(O)cc1)C(=O)N[C@@H](CCCN=C(N)N)C(=O)N1CCC[C@H]1C(=O)N[C@@H](CCCCN)C(=O)N[C@@H](CC(C)C)C(=O)N[C@@H](CCCCN)C(N)=O [Dyn A1-13NH2, reference compound]
κ opioid receptors
  IC50: 0.109 ± 0.003 nM
δ opioid receptors
  IC50: 2.96 nM
μ opioid receptors
  IC50: 1.33 nM

## [D-pro^10 ]Dyn A1-11 -OH [DPDYN]
Kappa opioid receptor; against the kappa ligand [3H]Bremazocine
  reported binding affinity: about 0.032 nM
Kappa opioid receptor
  κ vs. μ and κ vs δ selectivities: high
[3]
  activity against thermal stimulus: did not show any activity
[4]
  effect against chemical pain: dose-related effect
